# What was measured:
# [1] = target: C-C chemokine receptor type 5 (Homo sapiens, UniProt P51681); assay: Antagonist activity at CCR5 receptor by radiolabeled RANTES binding assay
# [2] = tested on: Human immunodeficiency virus 1; assay: Antiviral activity against R5 tropic HIV1 BaL infected in human JC53-BL cells expressing CCR5 after 2 days by cell-cell fusion assay; format: functional, organism-based; details: Human immunodeficiency virus 1, BaL, JC53BL, 48 h
# [3] = Metabolic stability in human liver microsomes assessed as clearance; format: ADME, Microsome
# [4] = tested on: Rattus norvegicus; assay: Tmax in rat at 2 mg/kg, po; format: ADME, organism-based; set-up: dose 2 mg/kg, route oral; details: in vivo
# [5] = AUC in rat at 0.5 mg/kg, iv; format: ADME, organism-based; set-up: dose 0.5 mg/kg, route intravenous; details: plasma
# [6] = target: C-C chemokine receptor type 2 (Homo sapiens, UniProt P41597); assay: Inhibition of CCR2 receptor
# [7] = Volume of distribution at steady state in rat at 0.5 mg/kg, iv; format: ADME, organism-based; set-up: dose 0.5 mg/kg, route intravenous; details: in vivo, read-out: Vdss
# [8] = tested on: Rattus norvegicus; assay: AUC in rat at 2 mg/kg, po; format: ADME, organism-based, Plasma; set-up: dose 2 mg/kg, route oral; details: in vivo
# [9] = target: C-X-C chemokine receptor type 4 (Homo sapiens, UniProt P61073); assay: Inhibition of CXCR4 receptor
# [10] = tested on: Rattus norvegicus; assay: Half life in rat at 2 mg/kg, po; format: ADME, organism-based; set-up: dose 2 mg/kg, route oral; details: in vivo
# [11] = Mean retention time in rat at 0.5 mg/kg, iv; format: ADME, organism-based; set-up: dose 0.5 mg/kg, route intravenous; details: in vivo
# [12] = target: T1, C-C chemokine receptor type 3 (Homo sapiens, UniProt P51677); assay: Inhibition of CCR3 receptor
# T1 sequence (P51677 whole entry): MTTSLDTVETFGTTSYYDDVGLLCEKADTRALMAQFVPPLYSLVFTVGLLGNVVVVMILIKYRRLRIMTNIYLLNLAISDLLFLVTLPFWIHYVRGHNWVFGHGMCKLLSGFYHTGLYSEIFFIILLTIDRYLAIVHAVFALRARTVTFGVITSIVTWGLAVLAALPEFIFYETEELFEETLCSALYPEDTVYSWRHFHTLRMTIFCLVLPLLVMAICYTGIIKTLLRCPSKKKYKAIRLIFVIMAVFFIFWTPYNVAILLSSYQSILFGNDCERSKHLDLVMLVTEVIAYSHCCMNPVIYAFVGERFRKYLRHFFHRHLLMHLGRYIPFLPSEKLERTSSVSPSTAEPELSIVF
# [13] = Mean retention time in rat at 2 mg/kg, po; format: ADME, organism-based; set-up: dose 2 mg/kg, route oral; details: in vivo
# [14] = target: T2, C-C chemokine receptor type 1 (Homo sapiens, UniProt P32246); assay: Inhibition of CCR1 receptor
# T2 sequence (P32246 whole entry): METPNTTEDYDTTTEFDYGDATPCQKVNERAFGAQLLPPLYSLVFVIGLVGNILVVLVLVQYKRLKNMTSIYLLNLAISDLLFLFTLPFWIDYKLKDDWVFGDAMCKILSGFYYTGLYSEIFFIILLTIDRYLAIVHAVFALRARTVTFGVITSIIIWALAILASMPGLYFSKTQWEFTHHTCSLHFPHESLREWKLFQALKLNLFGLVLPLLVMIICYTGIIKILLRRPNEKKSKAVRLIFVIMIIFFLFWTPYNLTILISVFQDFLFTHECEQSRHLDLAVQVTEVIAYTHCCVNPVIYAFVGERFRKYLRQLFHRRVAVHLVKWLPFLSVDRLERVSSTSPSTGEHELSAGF
# [15] = tested on: Human immunodeficiency virus 1; assay: Inhibition of R5 tropic HIV1 BaL replication in human PBMC; format: functional, organism-based; details: Human immunodeficiency virus 1, BaL
# [16] = Oral bioavailability in rat at 2 mg/kg; format: ADME, organism-based; details: in vivo
# [17] = Clearance in rat at 0.5 mg/kg, iv; format: ADME, organism-based; set-up: dose 0.5 mg/kg, route intravenous; details: in vivo
# [18] = target: T3, C-C chemokine receptor type 4 (Homo sapiens, UniProt P51679); assay: Inhibition of CCR4 receptor
# T3 sequence (P51679 whole entry): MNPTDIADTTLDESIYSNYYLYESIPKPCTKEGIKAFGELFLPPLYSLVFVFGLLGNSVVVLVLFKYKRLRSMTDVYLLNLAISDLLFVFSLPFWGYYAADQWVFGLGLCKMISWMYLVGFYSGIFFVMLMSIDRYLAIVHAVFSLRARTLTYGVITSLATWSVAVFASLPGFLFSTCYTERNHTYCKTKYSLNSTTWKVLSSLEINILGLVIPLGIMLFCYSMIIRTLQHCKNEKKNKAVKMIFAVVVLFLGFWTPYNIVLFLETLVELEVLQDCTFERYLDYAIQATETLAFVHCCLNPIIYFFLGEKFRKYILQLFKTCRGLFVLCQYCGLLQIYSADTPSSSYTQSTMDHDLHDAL
# [19] = target: T4, C-C chemokine receptor type 6 (Homo sapiens, UniProt P51684); assay: Inhibition of CCR6 receptor
# T4 sequence (P51684 whole entry): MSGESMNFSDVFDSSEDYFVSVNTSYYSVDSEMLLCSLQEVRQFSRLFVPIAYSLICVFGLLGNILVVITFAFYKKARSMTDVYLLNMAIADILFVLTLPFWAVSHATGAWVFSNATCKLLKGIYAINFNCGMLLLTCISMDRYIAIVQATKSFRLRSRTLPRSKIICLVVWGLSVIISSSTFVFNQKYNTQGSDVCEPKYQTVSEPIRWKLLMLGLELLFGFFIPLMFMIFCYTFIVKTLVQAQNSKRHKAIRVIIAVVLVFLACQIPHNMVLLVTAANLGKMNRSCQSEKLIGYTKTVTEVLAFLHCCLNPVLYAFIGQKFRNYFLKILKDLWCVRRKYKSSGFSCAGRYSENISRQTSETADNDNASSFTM
# [20] = target: hERG (KCNH2) (Homo sapiens, UniProt Q12809); assay: Inhibition of human ERG receptor
# [21] = tested on: Rattus norvegicus; assay: Cmax in rat at 2 mg/kg, po; format: ADME, organism-based; set-up: dose 2 mg/kg, route oral; details: in vivo
# [22] = Half life in rat at 0.5 mg/kg, iv; format: ADME, organism-based; set-up: dose 0.5 mg/kg, route intravenous; details: in vivo
# Chain of C-C chemokine receptor type 5 (P51681 whole entry, the tested form may be a part): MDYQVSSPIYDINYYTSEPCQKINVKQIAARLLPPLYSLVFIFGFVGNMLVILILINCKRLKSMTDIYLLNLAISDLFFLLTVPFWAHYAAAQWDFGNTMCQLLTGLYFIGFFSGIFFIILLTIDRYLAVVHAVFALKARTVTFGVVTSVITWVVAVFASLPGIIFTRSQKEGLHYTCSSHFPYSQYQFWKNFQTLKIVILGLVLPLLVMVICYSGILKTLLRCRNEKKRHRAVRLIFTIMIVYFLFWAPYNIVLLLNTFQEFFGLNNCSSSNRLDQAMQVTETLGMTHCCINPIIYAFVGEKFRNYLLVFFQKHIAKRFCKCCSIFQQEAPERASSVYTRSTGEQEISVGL
# Chain of C-X-C chemokine receptor type 4 (P61073 whole entry): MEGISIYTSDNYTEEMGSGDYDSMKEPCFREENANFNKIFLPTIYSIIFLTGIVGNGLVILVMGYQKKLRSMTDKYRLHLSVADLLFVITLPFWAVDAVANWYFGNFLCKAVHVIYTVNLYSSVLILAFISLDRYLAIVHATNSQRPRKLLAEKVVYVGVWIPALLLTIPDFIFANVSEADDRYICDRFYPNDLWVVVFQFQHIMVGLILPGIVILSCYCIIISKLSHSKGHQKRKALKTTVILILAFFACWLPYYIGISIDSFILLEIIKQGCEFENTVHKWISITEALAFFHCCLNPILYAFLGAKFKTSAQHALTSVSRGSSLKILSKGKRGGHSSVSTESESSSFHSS
# Chain of C-C chemokine receptor type 2 (P41597 whole entry): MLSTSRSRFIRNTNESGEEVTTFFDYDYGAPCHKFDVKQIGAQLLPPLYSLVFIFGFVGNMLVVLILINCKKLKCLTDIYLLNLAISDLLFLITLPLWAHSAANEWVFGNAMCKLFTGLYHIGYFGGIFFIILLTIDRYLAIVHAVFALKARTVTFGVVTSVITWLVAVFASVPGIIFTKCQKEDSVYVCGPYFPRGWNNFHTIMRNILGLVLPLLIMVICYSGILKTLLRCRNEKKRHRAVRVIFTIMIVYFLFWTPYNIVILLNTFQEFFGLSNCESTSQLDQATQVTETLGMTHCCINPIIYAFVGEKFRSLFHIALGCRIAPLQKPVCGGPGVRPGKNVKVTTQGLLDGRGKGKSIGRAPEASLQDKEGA
# Chain of hERG (KCNH2) (Q12809 whole entry): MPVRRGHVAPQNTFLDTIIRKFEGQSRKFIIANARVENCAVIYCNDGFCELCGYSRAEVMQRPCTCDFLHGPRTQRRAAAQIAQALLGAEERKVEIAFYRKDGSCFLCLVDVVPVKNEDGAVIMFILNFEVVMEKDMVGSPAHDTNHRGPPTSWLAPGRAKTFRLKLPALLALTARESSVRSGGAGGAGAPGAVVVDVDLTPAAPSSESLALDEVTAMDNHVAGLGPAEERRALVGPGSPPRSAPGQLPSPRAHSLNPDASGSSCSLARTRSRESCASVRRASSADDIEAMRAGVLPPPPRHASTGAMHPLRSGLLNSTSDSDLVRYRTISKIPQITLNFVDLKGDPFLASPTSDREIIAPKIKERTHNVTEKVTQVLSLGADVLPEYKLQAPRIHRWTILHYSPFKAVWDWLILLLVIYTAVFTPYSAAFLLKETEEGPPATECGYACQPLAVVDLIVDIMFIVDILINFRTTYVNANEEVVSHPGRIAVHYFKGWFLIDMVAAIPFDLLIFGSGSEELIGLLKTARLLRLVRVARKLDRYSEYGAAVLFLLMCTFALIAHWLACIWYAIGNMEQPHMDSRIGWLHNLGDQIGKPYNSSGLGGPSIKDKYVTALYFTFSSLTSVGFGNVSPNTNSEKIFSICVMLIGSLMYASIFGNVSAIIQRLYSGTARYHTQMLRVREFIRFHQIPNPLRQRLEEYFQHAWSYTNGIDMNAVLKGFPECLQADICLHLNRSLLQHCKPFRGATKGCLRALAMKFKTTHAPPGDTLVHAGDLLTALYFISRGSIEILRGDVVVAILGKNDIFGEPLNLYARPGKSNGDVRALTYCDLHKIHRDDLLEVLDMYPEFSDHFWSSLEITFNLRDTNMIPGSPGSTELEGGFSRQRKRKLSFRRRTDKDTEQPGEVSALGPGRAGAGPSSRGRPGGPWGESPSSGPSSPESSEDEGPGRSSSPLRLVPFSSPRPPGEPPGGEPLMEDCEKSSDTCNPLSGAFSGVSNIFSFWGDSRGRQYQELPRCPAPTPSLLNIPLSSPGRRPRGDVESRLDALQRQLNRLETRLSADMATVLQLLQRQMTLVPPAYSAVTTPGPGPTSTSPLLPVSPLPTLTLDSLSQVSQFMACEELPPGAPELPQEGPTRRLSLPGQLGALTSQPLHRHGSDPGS
SMILES,IC50 [1] [nM],IC50 [2] [nM],microsomal CLint [3] [µL/min/mg],other results
CCCCC1C(=O)N(C[C@H]2CC[C@H](O)CC2)CCC12CCN(C1(C)CCN(C(=O)c3c(C)cc(C#N)nc3C)CC1)CC2 (some centres not stated),31,< 2.5,–,–
CCCCC1CN(S(=O)(=O)c2ccccn2)CCC12CCN(C1(C)CCN(C(=O)c3c(C)ncnc3C)CC1)CC2 (configuration not stated),18,4,310,–
CCCCC1C(=O)N(C[C@H]2CC[C@H](O)CC2)CCC12CCN(C1(C)CCN(C(=O)c3c(C)ncnc3C)CC1)CC2 (some centres not stated),76,10,–,–
CCCCC1C(=O)N(CC2CCN(CC(F)F)CC2)CCC12CCN(C1(C)CCN(C(=O)c3c(C)ncnc3C)CC1)CC2 (configuration not stated),70,26,–,–
CCCCC1CN(S(=O)(=O)c2ccccc2)CCC12CCN(C1(C)CCN(C(=O)c3c(C)ncnc3C)CC1)CC2 (configuration not stated),19,< 1,773,–
CCCCC1C(=O)N(C[C@H]2CC[C@H](OCC)CC2)CCC12CCN(C1(C)CCN(C(=O)c3c(C)ncnc3C)CC1)CC2 (some centres not stated),30,5,–,Tmax [4]: 1 h; AUC [5]: 334 ng·h/mL; IC50 [6]: > 50000 nM; Vd [7]: 4.71 L/kg; AUC [8]: 910 ng·h/mL; IC50 [9]: > 50000 nM; t1/2 [10]: 4.19 h; MRT [11]: 2.65 h; IC50 [12]: > 50000 nM; MRT [13]: 4.33 h; IC50 [14]: > 50000 nM; IC50 [15]: 1.4 nM; IC90 [15]: 7.5 nM; bioavailability [16]: 66%; clearance [17]: 24.1 mL/min/kg; IC50 [18]: > 50000 nM; IC50 [19]: > 50000 nM; IC20 [20]: 3000 nM; Cmax [21]: 2.03 ng/mL; half-life [22]: 3.8 h
CCCCC1CN(S(=O)(=O)c2cn(C)cn2)CCC12CCN(C1(C)CCN(C(=O)c3c(C)ncnc3C)CC1)CC2 (configuration not stated),27,7,96,–
CCCCC1C(=O)N(Cc2ccc(F)cc2)CCC12CCN(C1(C)CCN(C(=O)c3c(C)ncnc3C)CC1)CC2 (configuration not stated),19,100,–,–
CCCCC1CN(S(=O)(=O)C2CCOCC2)CCC12CCN(C1(C)CCN(C(=O)c3c(C)ncnc3C)CC1)CC2 (configuration not stated),22,6,280,–
CCCCC1CN(S(=O)(=O)C2CCN(C(C)=O)CC2)CCC12CCN(C1(C)CCN(C(=O)c3c(C)ncnc3C)CC1)CC2 (configuration not stated),78,10,70,–
CCCC[C@H]1CN(S(=O)(=O)CC(F)(F)F)CCC12CCN(C1(C)CCN(C(=O)c3c(C)ncnc3C)CC1)CC2,19,3,53,–
CCCCC1C(=O)N(CC2CCOCC2)CCC12CCN(C1(C)CCN(C(=O)c3c(C)ncnc3C)CC1)CC2 (configuration not stated),30,4,–,–
CCCOC1CN(S(=O)(=O)C2CC2)CCC12CCN(C1(C)CCN(C(=O)c3c(C)ncnc3C)CC1)CC2 (configuration not stated),80,400,–,–
Cc1ncnc(C)c1C(=O)N1CCC(C)(N2CCC3(CC2)CCN(S(C)(=O)=O)CC3c2ccccc2)CC1 (configuration not stated),104,1900,–,–
CCCCC1CN(CC2CCOCC2)CCC12CCN(C1(C)CCN(C(=O)c3c(C)ncnc3C)CC1)CC2 (configuration not stated),> 500,> 5000,–,–
CCCCC1CN(S(C)(=O)=O)CCC12CCN(C1(C)CCN(C(=O)c3c(C)ncnc3C)CC1)CC2 (configuration not stated),25,100,7,–
CCCCC1CN(S(=O)(=O)C2CC2)CCC12CCN(C1(C)CCN(C(=O)c3c(C)ncnc3C)CC1)CC2 (configuration not stated),22,7,100,–
CCCCC1CN(C(=O)OC2CCOCC2)CCC12CCN(C1(C)CCN(C(=O)c3c(C)ncnc3C)CC1)CC2 (configuration not stated),349,> 5000,–,–
CCCCC1C(=O)N(CC2CCN(C(=O)OC)CC2)CCC12CCN(C1(C)CCN(C(=O)c3c(C)ncnc3C)CC1)CC2 (configuration not stated),60,8,–,–
CCCCC1C(=O)N(C[C@H]2CC[C@H](OC)CC2)CCC12CCN(C1(C)CCN(C(=O)c3c(C)ncnc3C)CC1)CC2 (some centres not stated),37,6,–,–
CCCCC1CN(S(=O)(=O)N2CCOCC2)CCC12CCN(C1(C)CCN(C(=O)c3c(C)ncnc3C)CC1)CC2 (configuration not stated),11,1,276,–
CCCC[C@H]1C(=O)N(C[C@H]2CC[C@H](OCC)CC2)CCC12CCN(C1(C)CCN(C(=O)c3c(C)ncnc3C)CC1)CC2,–,–,–,IC50 [15]: 0.8 nM; IC90 [15]: 4 nM
CCCCC1CN(C(=O)C2CCOCC2)CCC12CCN(C1(C)CCN(C(=O)c3c(C)cc(C#N)nc3C)CC1)CC2 (configuration not stated),217,170,–,–
CCCCC1CN(S(=O)(=O)C2CCN(C=O)CC2)CCC12CCN(C1(C)CCN(C(=O)c3c(C)ncnc3C)CC1)CC2 (configuration not stated),64,14,60,–
CCCC[C@@H]1C(=O)N(C[C@H]2CC[C@H](OCC)CC2)CCC12CCN(C1(C)CCN(C(=O)c3c(C)ncnc3C)CC1)CC2,–,–,–,IC50 [15]: 0.5 nM; IC90 [15]: 3 nM
CCCCC1CN(C(=O)C2CCOCC2)CCC12CCN(C1(C)CCN(C(=O)c3c(C)ncnc3C)CC1)CC2 (configuration not stated),> 500,> 5000,–,–
CCCC[C@H]1CN(C(=O)NC)CCC12CCN(C1(C)CCN(C(=O)c3c(C)ncnc3C)CC1)CC2,35,4,–,–
CCCCC1CN(S(=O)(=O)N(C)C)CCC12CCN(C1(C)CCN(C(=O)c3c(C)ncnc3C)CC1)CC2 (configuration not stated),60,7,207,–

# — ChEMBL document CHEMBL1139267, “Discovery of a potent, selective and orally bioavailable 3,9-diazaspiro[5.5]undeca-2-one CCR5 antagonist” (Bioorg Med Chem Lett, 2009)
